≈ marks a conversion by molar mass, not a printed value.
Experiments:
[1] = test system: Hep3B; test: MTS activity assay, Hep3B; type: cell-based, human; details: for viability at 50 µg/mL: Homo sapiens, Hep3B, read-out: Relative MTS Activity at 50 μg/mL Concentration, Hep3B
From the text: (§1) All the assays were done in triplicates.

[2] = test system: Esophageal squamous cell carcinoma cell line KYSE150; test: MTS activity assay, KYSE150; type: cell-based, human; details: for Relative MTS Activity at 50 μg/mL Concentration, KYSE150: 48 hours, relative to control
From the text: as §1

[3] = test system: ESCC cell line HKESC-4; test: MTS activity assay, HKESC-4; type: cell-based; details: for Relative MTS Activity at 50 μg/mL Concentration, HKESC-4: 48 hours, relative to control
From the text: as §1

[4] = test system: Esophageal squamous cell carcinoma cell line HKESC-1; test: MTS activity assay, HKESC-1; type: cell-based; details: for Relative MTS Activity at 50 μg/mL Concentration, HKESC-1: 48 hours, relative to control
From the text: as §1

[5] = test system: Lung carcinoma cell line (A549); test: MTS activity assay, A549; type: cell-based; details: 48 hours, relative to control; for viability at 50 µg/mL: Homo sapiens, A549, 50 μg/mL, read-out: Relative MTS Activity at 50 μg/mL Concentration, A549
From the text: as §1

[6] = test system: Human liver cancer cell line Hep3B; test: Preliminary anti-cancer screening, One Step ATP lite assay; type: cell-based; set-up: key to Relative activity to untreated control: “+” (more cell death); “−” (no cytotoxicity); details: 48 hours; for Relative activity to untreated control: Hep3B, 50 ug/ml
Method: Human liver cancer cell line Hep3B was used for purpose of preliminary anti-cancer screening for the selected alkaloids. Cancer cells (1×10^4 per well) seeded in the 96 wells microtitre plates for 24 hours were prepared for the alkaloid screening. The selected compounds were prepared as a stock concentration of 50 mg/ml in dimethylsulfoxide (DMSO) and were added at a concentration of 50 μg/ml and incubated for a further of 48 hours. Untreated control received either total complete medium or 0.1% of DMSO. Cisplatin (CDDP, also at 50 μg/ml) was the positive reference which induced more than 95% in Hep3B. Afterwards, the evaluation of possible antiproliferative or cytotoxicity of those alkaloids was examined by the One Step ATP lite assay purchased from PerkinElmer according to the technical manual provided. […] The relative MTS activities were compared with the untreated control and illustrated using symbols “+” (more cell death) and “−” (no cytotoxicity).

[7] = Histological examination of organs of treated mice; type: in vivo; details: mice after sacrifice; 10 mg/kg i.p. daily for 19 days
Method: (§2) Each group of three mice received intra-peritoneal (i.p.) injection daily with 10 mg/kg of optically pure isomers with 6% polyethylene glycol (PEG Mn 8000) for 19 days. The control group of two mice was injected daily with 6% PEG only. Tumor dimensions were measured regularly with calipers, and tumor volumes were estimated using two-dimensional measurements of length and width and calculated with the formula [l×(w)^2]×0.52 (l is length and w is width) as previously described.

[8] = test system: KYSE150 xenograft tumors; test: Subcutaneous KYSE150 xenograft tumors in nude mice; type: in vivo; details: 10 mg/kg/day i.p. for 19 days, compared with negative control (6% PEG), FIG. 2
Method: Optically pure compound (−)-2b (ee up 99%) was tested for their anti-cancer effects against the subcutaneous xenograft tumors of human esophageal cancer derived from the cell line KYSE150, which was purchased from DSMZ (Braunschweig, Germany) and was cultured in a known way as previously described (for details see reference number 17).
as §2

[9] = test system: five carcinoma cell lines (Hep3B, A549, HKESC-1, HKESC-4 and KYSE150); details: against the cancer cell lines, FIG. 1
From the text: (§3) Lung carcinoma cell line (A549) and hepatocellular carcinoma (HCC) cell line (Hep3B) were obtained from American Type of Culture Collection (ATCC). Esophageal squamous cell carcinoma cell line KYSE150 was purchased from DSMZ (Braunschweig, Germany) [13]. […] Hep3B HCC and A549 lung carcinoma cell lines were maintained in DMEM and F12-K medium respectively with 10% of heat inactivated fetal bovine serum (Hyclone) together with antibiotics involving penicillin and streptomycin. All the ESCC cell lines (KYSE150, HKESC-1 and HKESC-4) were maintained in MEM supplemented with 10% of heat inactivated fetal bovine serum together with antibiotics involving penicillin and streptomycin. Cells were allowed to grow in a humidified cell culture incubator keeping at 5% carbon dioxide.
(§4) Briefly, 1×10^4 carcinoma cells were seeded at day 0. After 24 hours, medium was changed and various compounds were added at different concentrations. Cisplatin (CDDP), a commonly used anti-cancer agent, was also used as the positive control. After 48 hours of incubation, the medium was removed and MTS/PMS solution was added and they were incubated further for exactly 30 minutes. Afterwards, optical absorbance was determined at 490 nm according to the user manual (Promega). All the assays were done in triplicates.

[10] = test system: five carcinoma cell lines (Hep3B, A549, HKESC-1, HKESC-4 and KYSE150); test: cells; details: read-out: MTS50 (50% of MTS reduction ability by the chemical treated cell as compared with control), against the cancer cell lines, FIG. 1
From the text: as §3, §4

[11] = 50 μg/mL, 48 hours, relative to control

In the case of `CC1CCc2cccc(OCc3ccc(C#N)cc3)c2N1` (stereo not drawn) [Compound 13b, 4-((1,2,3,4-Tetrahydro-2-methylquinolin-8-yloxy)methyl)benzonitrile], the viability at 50 µg/mL [1, 11] is reported as 84.2 ± 2.4%, the “Relative MTS Activity at 50 μg/mL Concentration, KYSE150” value (“Relative MTS Activity … KYSE150” for short) [2] is reported as 0.470 ± 0.087 and the “Relative MTS Activity at 50 μg/mL Concentration, HKESC-4” value (“Relative MTS Activity … HKESC-4” below) [3] is reported as 0.424 ± 0.062. The “Relative MTS Activity at 50 μg/mL Concentration, HKESC-1” value (shortened to “Relative MTS Activity … HKESC-1”) [4] was 0.754 ± 0.017.

For `COc1cccc(COc2cccc3ccc(C)nc23)c1` [Compound 12a, 8-(3-methoxybenzyloxy)-2-methylquinoline], the viability at 50 µg/mL [1, 11] was 20.9 ± 3%, the “Relative MTS Activity … KYSE150” value [2] was 0.648 ± 0.013 and the “Relative MTS Activity … HKESC-4” value [3] was 0.794 ± 0.005. The “Relative MTS Activity … HKESC-1” value [4] was 0.535 ± 0.032.

`Cc1ccc2cccc(OCc3cccc(-c4ccccc4)c3)c2n1` [Compound 14a, 8-(biphenyl-3-ylmethoxy)-2-methylquinoline] gave a viability at 50 µg/mL [1, 11] of 37 ± 21.4% and a viability at 50 µg/mL [5] of 24.4 ± 0.3%.

In the case of `Cc1ccc2cccc(OCc3ccc(C(F)(F)F)cc3)c2n1` [Compound 17a, 8-(4-(trifluoromethyl)benzyloxy)-2-methylquinoline], the viability at 50 µg/mL [1, 11] is reported as 87.8 ± 7.3% and the viability at 50 µg/mL [5] is reported as 92 ± 4.2%.

With `CC(=O)Oc1cccc2c1NC(C)CC2` (stereo not drawn) [Compound 25b, 2-Methyl-1,2,3,4-tetrahydroquinolin-8-yl acetate] the “Relative activity to untreated control” value [6] was “+”.

With `CC1CCc2cccc(OCc3cccc([N+](=O)[O-])c3)c2N1` (stereo not drawn) [Compound 9b, 8-(3-Nitrobenzyloxy)-1,2,3,4-tetrahydro-2-methylquinoline] the viability at 50 µg/mL [1, 11] was 68.8 ± 2.7%, the “Relative MTS Activity … KYSE150” value [2] was 0.619 ± 0.025 and the viability at 50 µg/mL [5] was 70.6 ± 18.4%. The “Relative MTS Activity … HKESC-4” value [3] was 0.698 ± 0.096 and the “Relative MTS Activity … HKESC-1” value [4] was 0.453 ± 0.012.

With `CC(=O)Oc1cccc2c1N(C(C)=O)C(C)CC2` (stereo not drawn) [Compound 26b, 1-Acetyl-2-methyl-1,2,3,4-tetrahydroquinolin-8-yl acetate] the “Relative activity to untreated control” value [6] was “+”.

Work on `Cc1ccc2cccc(OCc3ccc(OC(F)(F)F)cc3)c2n1` [Compound 15a, 8-(4-(trifluoromethoxy)benzyloxy)-2-methylquinoline] yielded a viability at 50 µg/mL [1, 11] of 77.7 ± 13% and a viability at 50 µg/mL [5] of 62.9 ± 8.1%.

For `CC1CCc2cccc(OCc3ccc(Cl)cc3)c2N1` (stereo not drawn) [Compound 18b, 8-(4-Chlorobenzyloxy)-1,2,3,4-tetrahydro-2-methylquinoline], the viability at 50 µg/mL [1, 11] was 60.9 ± 4.2% and the viability at 50 µg/mL [5] was 109 ± 3.9%.

For `COc1ccc(COc2cccc3ccc(C)nc23)cc1` [Compound 11a, 8-(4-methoxybenzyloxy)-2-methylquinoline], the viability at 50 µg/mL [1, 11] was 32 ± 1.7%, the “Relative MTS Activity … KYSE150” value [2] was 0.797 ± 0.083 and the viability at 50 µg/mL [5] was 52.7 ± 1.8%. The “Relative MTS Activity … HKESC-4” value [3] was 0.488 ± 0.017 and the “Relative MTS Activity … HKESC-1” value [4] was 0.817 ± 0.076.

With `[NH2][Pt]([NH2])([Cl])[Cl]` [CDDP, Cisplatin, reference compound] the “Relative MTS Activity at 50 μg/mL Concentration, Hep3B” value [1, 11] was 0.116 ± 0.031, the “effect induced by positive reference in Hep3B” value ([6]; 50 μg/ml) was “more than 95%” and the “Relative MTS Activity … KYSE150” value [2] was 0.205 ± 0.032. For the same compound, the “Relative MTS Activity at 50 μg/mL Concentration, A549” value [5] was 0.216 ± 0.075, the “Relative MTS Activity … HKESC-4” value [3] was 0.158 ± 0.081 and the “Relative MTS Activity … HKESC-1” value [4] was 0.135 ± 0.017.

`CC1CCc2cccc(OCc3ccc(OC(F)(F)F)cc3)c2N1` (stereo not drawn) [Compound 15b, 8-(4-(Trifluoromethoxy)benzyloxy)-1,2,3,4-tetrahydro-2-methylquinoline] showed a viability at 50 µg/mL [1, 11] of 76 ± 9% and a viability at 50 µg/mL [5] of 84 ± 2.9%.

In the case of `CC1CCc2c(Br)cc(Br)c(O)c2N1` (single isomer, unassigned; (-)) [(−)-2b, 5,7-Dibromo-1,2,3,4-tetrahydro-2-methylquinolin-8-ol], the “Histological examination of liver, heart, lung and kidney sections” value [7] is reported as “no observable damage”, the “volume growth of the KYSE150 xenograft tumors” value [8] is reported as “effective in suppressing the volume growth” and the “MTS50 (50% of MTS reduction ability by the chemical treated cell as compared with control)” value [9] is reported as roughly 5 µg/mL.

For `CC1CCc2c(Br)cc(Br)c(O)c2N1` (single isomer, unassigned; (+)) [(+)-2b, 5,7-Dibromo-1,2,3,4-tetrahydro-2-methylquinolin-8-ol], the “cytotoxic activity relative to CDDP” value ([1]; cell line Hep3B, preliminary results) was 1.5 fold, the IC50 [10] was 4 to 10 µg/mL (≈ 12.5 to 31.2 µM) and the “cytotoxic activity relative to CDDP” value ([2]; cell line KYSE150, preliminary results) was “more than 2 fold”. For the same compound, the “MTS50 (50% of MTS reduction ability by the chemical treated cell as compared with control)” value [9] was roughly 5 µg/mL, the “cytotoxic activity relative to CDDP” value ([3]; cell line HKESC-4, preliminary results) was 1.5 fold and the “cytotoxic activity relative to CDDP” value ([4]; cell line HKESC-1, preliminary results) was 1.5 fold.

For `CC1CCc2cccc(OCCN3CCCCC3)c2N1` (stereo not drawn) [Compound 8b, 8-(2-(Piperidin-1-yl)ethoxy)-1,2,3,4-tetrahydro-2-methylquinoline], the “Relative activity to untreated control” value [6] was “+”.

For `COc1ccc(COc2cccc3c2NC(C)CC3)cc1` (stereo not drawn) [Compound 11b, 8-(4-Methoxybenzyloxy)-1,2,3,4-tetrahydro-2-methylquinoline], the viability at 50 µg/mL [1, 11] was 55.4 ± 11.4%, the “Relative MTS Activity … KYSE150” value [2] was 0.764 ± 0.001 and the viability at 50 µg/mL [5] was 75.9 ± 7.9%. The “Relative MTS Activity … HKESC-4” value [3] was 0.777 ± 0.019 and the “Relative MTS Activity … HKESC-1” value [4] was 0.917 ± 0.023.

For `COc1cccc(COc2cccc3c2NC(C)CC3)c1` (stereo not drawn) [Compound 12b, 8-(3-Methoxybenzyloxy)-1,2,3,4-tetrahydro-2-methylquinoline], the viability at 50 µg/mL [1, 11] was 72.6 ± 6.5%, the “Relative MTS Activity … KYSE150” value [2] was 0.845 ± 0.010 and the “Relative MTS Activity … HKESC-4” value [3] was 0.716 ± 0.022. For the same compound, the “Relative MTS Activity … HKESC-1” value [4] was 0.682 ± 0.001.

For `CC1CCc2cccc(OCc3ccc([N+](=O)[O-])cc3)c2N1` (stereo not drawn) [Compound 10b, 8-(4-Nitrobenzyloxy)-1,2,3,4-tetrahydro-2-methylquinoline], the viability at 50 µg/mL [1, 11] was 126 ± 3%, the “Relative MTS Activity … KYSE150” value [2] was 1.097 ± 0.036 and the viability at 50 µg/mL [5] was 166 ± 17.3%. The “Relative MTS Activity … HKESC-4” value [3] was 1.056 ± 0.050 and the “Relative MTS Activity … HKESC-1” value [4] was 1.337 ± 0.145.

Work on `CC1CCc2cccc(OCc3cccc(-c4ccccc4)c3)c2N1` (stereo not drawn) [Compound 14b, 8-(Biphenyl-3-ylmethoxy)-2-methyl-1,2,3,4-tetrahydroquinoline] yielded a viability at 50 µg/mL [1, 11] of 51 ± 6.8% and a viability at 50 µg/mL [5] of 124 ± 6.6%.

With `CC1CCc2cccc(OCc3ccc(C(F)(F)F)cc3)c2N1` (stereo not drawn) [Compound 17b, 8-(4-(Trifluoromethyl)benzyloxy)-1,2,3,4-tetrahydro-2-methylquinoline] the viability at 50 µg/mL [1, 11] was 73.4 ± 2.4% and the viability at 50 µg/mL [5] was 98.3 ± 0.1%.

In the case of `CC1CCc2cccc(OCc3ccc(F)cc3)c2N1` (stereo not drawn) [Compound 16b, 8-(4-Fluorobenzyloxy)-1,2,3,4-tetrahydro-2-methylquinoline], the viability at 50 µg/mL [1, 11] is reported as 41.2 ± 1.7% and the viability at 50 µg/mL [5] is reported as 90.8 ± 6.3%.
